Measured values as given in patent US9701689B2, “Substituted pyridines and pyridazines as CCR10 receptor inhibitors” (KYOWA HAKKO KIRIN CO., LTD., priority 2012, dated 2017).

Molecular target: T1, human CCR10 (Homo sapiens, UniProt P46092)
T1 construct: expressed in transfected cells; host or cells: KJMGER8 cells (Namalwa cell-derived line), beta-estradiol-induced; hCCR10G16 cells
T1 sequence (P46092 1-362): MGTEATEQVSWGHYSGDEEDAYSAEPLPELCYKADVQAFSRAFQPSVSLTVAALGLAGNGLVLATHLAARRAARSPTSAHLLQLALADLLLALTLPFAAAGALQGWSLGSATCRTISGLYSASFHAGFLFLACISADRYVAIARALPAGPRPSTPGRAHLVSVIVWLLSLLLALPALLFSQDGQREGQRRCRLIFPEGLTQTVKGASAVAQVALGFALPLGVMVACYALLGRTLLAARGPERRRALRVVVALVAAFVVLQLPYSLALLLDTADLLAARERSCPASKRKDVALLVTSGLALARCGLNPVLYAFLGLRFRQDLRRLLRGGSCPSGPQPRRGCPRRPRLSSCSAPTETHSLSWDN
Assay: CCR10 antagonistic effect: calcium assay of human CCR10 (CTACK-induced increase of intracellular calcium in hCCR10G16 cells)
Type: cell-based
Conditions: at a concentration of not more than 1000 nmol/L; human CCR10-expressing hCCR10G16 cells, 300 nmol/L CTACK added; read-out: inhibition of increase in the calcium ion concentration
Description: [Experimental Example 1] CCR10 Antagonistic Effect
(1) Preparation of Human CCR10-Inducible Expression Plasmid
A CCR10-inducible expression plasmid was prepared according to a known method [Analytical Biochemistry, 2006, vol. 400, page 163]. A DNA encoding human CCR10 was obtained by PCR. Using human chromosome DNA (100 ng; manufactured by Clontech) as a template, synthetic DNA having the sequences depicted in SEQ ID NOs: 1 and 2 as a human CCR10 cDNA specific primer, and Pyrobest DNA Polymerase (manufactured by TAKARA SHUZO CO. LTD.) as an enzyme, a DNA encoding human CCR10 was obtained by PCR. As a buffer for PCR, the buffer attached to the enzyme to be used, which was diluted 10-fold with deionized water, was used. Using Thermal Cycler DNA Engine (manufactured by MJ Research), PCR was performed by 35 cycles of reactions composed of an incubation at 94° C. for 30 sec, at an anneal temperature of 58° C. for 30 sec, and at 72° C. for 1 min after treating at 90° C. for 2 min.
The amplified PCR fragment was cleaved with HindIII and NotI, then a human CCR10 DNA fragment was recovered by the agarose gel electrophoresis method. The fragment was incorporated between the corresponding restriction enzyme sites (HindIII-NotI) of an inducible expression vector to construct a human CCR10-inducible expression plasmid.
Using a primer specific to the sequence of plasmid (synthetic DNA having the sequences shown in SEQ ID NOs: 3 and 4), the sequence of human CCR10 DNA region was determined. For the determination of the base sequence, DNA Sequencer 377 (manufactured by Perkin Elmer. Co.) and a reaction kit (ABI Prism (registered trade mark) BigDye (registered trade mark) Terminator Cycle Sequencing Ready Reaction kit: manufactured by Applied Biosystems) were used. The sequence of human CCR10 DNA was identical with the sequence (NM 016602) registered in GenBank.
(2) Preparation of Human CCR10 Expressing Cell for Calcium Assay
Cells for detecting signals from human CCR10 in calcium assay were prepared. According to a known method [Analytical.Biochemistry (Analy Biochem), 2006, vol. 400, page 163], human CCR10-inducible expressing cells whose host cell is KJMGER8 cell (Namalwa cell-derived cell line) were prepared. Human CCR10-inducible expression plasmid produced above and Gα16 expression plasmid were co-transfected into the KJMGER8 cells by the electroporation method [Cytotechnology, 1990, vol. 3, page 133], whereby the signals from human CCR10 could be detected by calcium assay (hereinafter to be referred to as hCCR10G16 cell). A Ga16 expression plasmid was produced by incorporating human Ga16 DNA into expression vector pAMoh (WO 03/087366). Expression of human CCR10 was induced by cultivating hCCR10G16 cells in the presence of 10 nmol/L β-estradiol (manufactured by Sigma Ltd.) for 24 hr.
(3) Calcium Assay of Human CCR10
Cells expressing human CCR10 induced by the above-mentioned method were suspended in RPMI1640 medium (manufactured by Invitrogen), and adjusted to a cell density of 2×10^6 cells/mL. The cells were blended with an equivalent volume of a loading buffer prepared according to the attached protocol of Fluo-3 calcium assay kit (manufactured by Molecular Devices Corporation), and incubated at 37° C. for several dozen minutes. This mixture was dispensed to a 384 well clear-bottom plate (manufactured by Corning Incorporated) at 40 μL/well. To this plate was added a solution of the test compound in dimethyl sulfoxide (DMSO), which was diluted 37-fold with RPMI1640 medium, at 5 μL/well, and the mixture was incubated at 37° C. for 30 min. 300 nmol/L human recombinant CTACK (manufactured by R&D Systems, Inc.) diluted with RPMI1640 medium containing 1 w/v % bovine serum albumin (manufactured by Sigma Ltd.) was added at 5 μL/well and, variation of intracellular calcium ion concentration for about 5 min after the addition was measured by a screening apparatus (FDSS; manufactured by Hamamatsu Photonics K.K.). […]

SMILES | inhibition at up to 1 µM [%]
NS(=O)(=O)c1ncc(C(=O)N2CCC(c3ccc(F)cc3)CC2)c(Nc2ccc(F)cc2F)c1Cl [Compound 27, 3-chloro-4-(2,4-difluorophenylamino)-5-[4-(4-fluorophenyl)piperidine-1-carbonyl]pyridine-2-sulfonamide] | ≥ 50
COc1ccc(Nc2c(C(=O)N3CCC(c4ccc(F)cc4)CC3)cnc(S(N)(=O)=O)c2Cl)cc1 [Compound 29, 3-chloro-5-[4-(4-fluorophenyl)piperidine-1-carbonyl]-4-(4-methoxyphenylamino)pyridine-2-sulfonamide] | ≥ 50
COc1ccc(Nc2c(C(=O)N3CCC(c4ccc(F)cc4)CC3)cnc(S(N)(=O)=O)c2Cl)c(F)c1 [Compound 30, 3-chloro-4-(2-fluoro-4-methoxyphenylamino)-5-[4-(4-fluorophenyl)piperidine-1-carbonyl]pyridine-2-sulfonamide] | ≥ 50
Cc1ccccc1Nc1c(C(=O)N2CCC(c3ccc(F)cc3)CC2)cnc(S(N)(=O)=O)c1Cl [Compound 33, 3-chloro-5-[4-(4-fluorophenyl)piperidine-1-carbonyl]-4-(o-tolylamino)pyridine-2-sulfonamide] | ≥ 50
NS(=O)(=O)c1ncc(C(=O)N2CCC(c3ccc(F)cc3)CC2)c(Nc2cc(F)c(F)cc2F)c1Cl [Compound 34, 3-chloro-5-[4-(4-fluorophenyl)piperidine-1-carbonyl]-4-(2,4,5-trifluorophenylamino)pyridine-2-sulfonamide] | ≥ 50
CNC(=O)C1COCCN1S(=O)(=O)c1ncc(C(=O)N2CCC(c3ccc(F)cc3)CC2)c(Nc2ccc(F)cc2C)c1Cl (stereo not drawn) [Compound 35, 4-{3-chloro-4-(4-fluoro-2-methylphenylamino)-5-[4-(4-fluorophenyl)piperidine-1-carbonyl]pyridin-2-ylsulfonyl}-N-methylmorpholine-3-carboxamide] | ≥ 50
Cc1cc(F)ccc1Nc1c(C(=O)N2CCC(c3ccc(F)cc3)CC2)cnc(S(=O)(=O)Nc2ccn(C)n2)c1Cl [Compound 39, 3-chloro-4-(4-fluoro-2-methylphenylamino)-5-[4-(4-fluorophenyl)piperidine-1-carbonyl]-N-(1-methyl-1H-pyrazol-3-yl)pyridine-2-sulfonamide] | ≥ 50
Cc1cc(Cl)ccc1Nc1cc(S(N)(=O)=O)ncc1C(=O)N1CCC2(CC1)OCc1ccccc12 [Compound 46, 4-(4-chloro-2-methylphenylamino)-5-(3H-spiro[isobenzofuran-1,4′-piperidine]-1′-ylcarbonyl]pyridine-2-sulfonamide] | ≥ 50
Cc1cc(F)ccc1Nc1cc(S(N)(=O)=O)ncc1C(=O)N1CCC(c2ccccc2)CC1 [Compound 48, 4-(4-fluoro-2-methylphenylamino)-5-(4-phenylpiperidine-1-carbonyl)pyridine-2-sulfonamide] | ≥ 50
Cc1ccc(Cl)c(Nc2cc(S(N)(=O)=O)ncc2C(=O)N2CCC(c3ccc(F)cc3)CC2)c1 [Compound 50, 4-(2-chloro-5-methylphenylamino)-5-[4-(4-fluorophenyl)piperidine-1-carbonyl]pyridine-2-sulfonamide] | ≥ 50

Now from value to molecule:

inhibition at up to 1 µM [%] | SMILES
≥ 50 | NS(=O)(=O)c1ncc(C(=O)N2CCC(c3ccc(F)cc3)CC2)c(Nc2ccc(Cl)cc2F)c1Cl [Compound 28, 3-chloro-4-(4-chloro-2-fluorophenylamino)-5-[4-(4-fluorophenyl)piperidine-1-carbonyl]pyridine-2-sulfonamide]
≥ 50 | Cc1cc(Nc2c(C(=O)N3CCC(c4ccc(F)cc4)CC3)cnc(S(N)(=O)=O)c2Cl)ccc1F [Compound 31, 3-chloro-4-(4-fluoro-3-methylphenylamino)-5-[4-(4-fluorophenyl)piperidine-1-carbonyl]pyridine-2-sulfonamide]
≥ 50 | COc1ccc(Nc2c(C(=O)N3CCC(c4ccc(F)cc4)CC3)cnc(S(N)(=O)=O)c2Cl)cc1F [Compound 32, 3-chloro-4-(3-fluoro-4-methoxyphenylamino)-5-[4-(4-fluorophenyl)piperidine-1-carbonyl]pyridine-2-sulfonamide]
≥ 50 | COc1ccc(NS(=O)(=O)c2ncc(C(=O)N3CCC(c4ccc(F)cc4)CC3)c(Nc3ccc(F)cc3C)c2Cl)cc1 [Compound 38, 3-chloro-4-(4-fluoro-2-methylphenylamino)-5-[4-(4-fluorophenyl)piperidine-1-carbonyl]-N-(4-methoxyphenyl)pyridine-2-sulfonamide]
≥ 50 | Cc1cc(NS(=O)(=O)c2ncc(C(=O)N3CCC(c4ccc(F)cc4)CC3)c(Nc3ccc(F)cc3C)c2Cl)no1 [Compound 40, 3-chloro-4-(4-fluoro-2-methylphenylamino)-5-[4-(4-fluorophenyl)piperidine-1-carbonyl]-N-(5-methylisoxazol-3-yl)pyridine-2-sulfonamide]
≥ 50 | Cc1cc(NS(=O)(=O)c2ncc(C(=O)N3CCC(c4ccc(F)cc4)CC3)c(Nc3ccc(F)cc3C)c2Cl)on1 [Compound 41, 3-chloro-4-(4-fluoro-2-methylphenylamino)-5-[4-(4-fluorophenyl)piperidine-1-carbonyl]-N-(3-methylisoxazol-5-yl)pyridine-2-sulfonamide]
≥ 50 | Cc1cc(F)ccc1Nc1c(C(=O)N2CCC(c3ccc(F)cc3)CC2)cnc(S(=O)(=O)Nc2cc(C(C)(C)C)on2)c1Cl [Compound 42, N-(5-tert-butylisoxazol-3-yl)-3-chloro-4-(4-fluoro-2-methylphenylamino)-5-[4-(4-fluorophenyl)piperidine-1-carbonyl]pyridine-2-sulfonamide]
≥ 50 | CCNC(=O)NS(=O)(=O)c1ncc(C(=O)N2CCC(c3ccc(F)cc3)CC2)c(Nc2ccc(F)cc2C)c1Cl [Compound 43, 3-chloro-N-(ethylcarbamoyl)-4-(4-fluoro-2-methylphenylamino)-5-[4-(4-fluorophenyl)piperidine-1-carbonyl]pyridine-2-sulfonamide]
≥ 50 | NS(=O)(=O)c1ncc(C(=O)N2CCC(c3ccc(F)cc3)CC2)c(NCc2ccccc2)c1Cl [Compound 44, 4-(benzylamino)-3-chloro-5-[4-(4-fluorophenyl)piperidine-1-carbonyl]pyridine-2-sulfonamide]
≥ 50 | NS(=O)(=O)c1ncc(C(=O)N2CCC(c3ccc(F)cc3)CC2)c(NC2CCCCC2)c1Cl [Compound 45, 3-chloro-4-(cyclohexylamino)-5-[4-(4-fluorophenyl)piperidine-1-carbonyl]pyridine-2-sulfonamide]
≥ 50 | Cc1cc(Cl)ccc1Nc1cc(S(N)(=O)=O)ncc1C(=O)N1CCC(c2ccccc2)CC1 [Compound 49, 4-(4-chloro-2-methylphenylamino)-5-(4-phenylpiperidine-1-carbonyl)pyridine-2-sulfonamide]
